Assay results published in patent publication US20090069302A1 (SMITHKLINE BEECHAM CORPORATION, priority 2006, published 2009).

Legend:
CD rats = assay: Effect on GLP-1 secretion in CD rats, intracolonic injection; assay type: in vivo, rat; details: anesthetized CD rats, 2.5 mg intracolonic
Protocol: Twelve ten week old (six per group) anesthetized normal CD rats were dosed with vehicle (0.5% HPMC/0.1% Tween80) or 2.5 mg Example 9 through intracolonic injection at 0 time point after a control blood sample was collected. Blood samples were collected at 5, 15, 30 and 60 minutes after dosing. Plasma active, and […] total GLP-1 were measured (ELISA kits, LINCO), and values were converted to % of controls. […] The results are listed in Tables 2a and 2b, and graphically represented in FIGS. 1a and 1b, respectively.

GK rats [1] = assay: Glucose tolerance test in the chronic study in GK rats; assay type: in vivo, rat; details: treated versus vehicle group, in words
GK rats [2] = assay: as above; assay type: in vivo, rat; set-up: glucose in glucose tolerance test: unit not given here; details: for glucose in glucose tolerance test: 0.3 mg/kg
Protocol: (§1) The results are listed in Tables 4a and 4b, and graphically represented in FIGS. 3a and 3b, respectively.
In the same chronic study in GK rats as in Tables 4a and 4b, an intravenous glucose tolerance test was performed on days 1, 3, 9, and 16.

GK rats [3] = assay: Sixteen day chronic intracolonic dosing study in GK rats (insulin, glucose, glucagon); assay type: in vivo, rat; details: 0.3 mg/kg QD intracolonic
From the text: as §1

AXOR109 = target: T1, AXOR109 (Homo sapiens, UniProt Q8TDU6); assay: Human AXOR109/Melanophore Assay; assay type: cell-based; details: melanophore assay
T1 construct: expressed in transfected cells; host or cells: melanophore cells, transfected by electroporation
T1 sequence (Q8TDU6 1-330): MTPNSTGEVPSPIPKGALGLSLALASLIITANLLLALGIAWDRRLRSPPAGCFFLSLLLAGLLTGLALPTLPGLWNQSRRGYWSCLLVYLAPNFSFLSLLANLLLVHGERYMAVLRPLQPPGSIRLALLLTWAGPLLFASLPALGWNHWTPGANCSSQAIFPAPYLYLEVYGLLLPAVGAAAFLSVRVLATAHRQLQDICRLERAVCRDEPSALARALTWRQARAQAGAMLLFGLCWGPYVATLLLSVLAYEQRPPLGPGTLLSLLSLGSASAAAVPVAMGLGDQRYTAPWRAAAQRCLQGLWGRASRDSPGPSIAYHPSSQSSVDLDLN
In short: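 Readout is melanosome dispersion in melanophores electroporated with human AXOR109, in buffer containing 10 nM melatonin and 1% DMSO. Transmittance was read before and after 1 h compound exposure across 11-point 3-fold dilutions. Response was normalized to 200 nM alpha-MSH as system max, and pEC50 was obtained from a Hill fit.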

[4] = 0 min (control sample before dosing)

In the case of `COc1ccc(S(=O)(=O)N2CCCN(S(=O)(=O)c3ccc(OC)c(OC)c3)CC2)cc1OC` [Example 9, 1,4-bis{[3,4-bis(methyloxy)phenyl]sulfonyl}hexahydro-1H-1,4-diazepine], the “Portal Vein Active GLP-1 Levels (% of Controls)” value (CD rats; [4]) is reported as 100.00 % of Controls, the “Portal Vein Total GLP-1 Levels (% of Controls)” value (CD rats; [4]) is reported as 100.00 % of Controls and the “Portal Vein Active GLP-1 Levels (% of Controls)” value (CD rats; 5 min) is reported as 175.27 % of Controls. For the same molecule, the “Portal Vein Total GLP-1 Levels (% of Controls)” value (CD rats; 5 min) was 182.84 % of Controls, the “Portal Vein Active GLP-1 Levels (% of Controls)” value (CD rats; 15 min) was 352.50 % of Controls and the “Portal Vein Total GLP-1 Levels (% of Controls)” value (CD rats; 15 min) was 308.38 % of Controls. The “Portal Vein Active GLP-1 Levels (% of Controls)” value (CD rats; 30 min) was 298.49 % of Controls, the “Portal Vein Total GLP-1 Levels (% of Controls)” value (CD rats; 30 min) was 263.34 % of Controls and the “Portal Vein Active GLP-1 Levels (% of Controls)” value (CD rats; 60 min) was 286.95 % of Controls. The “Portal Vein Total GLP-1 Levels (% of Controls)” value (CD rats; 60 min) was 246.00 % of Controls, the “active and total GLP-1 level compared to controls” value (CD rats; in words) was “higher level of active and total GLP-1” and the “Glucose excretion during the oral glucose tolerance test” value (GK rats [1]) was “less in the treated group as compared to the vehicle group”. The “glucose in glucose tolerance test” value (GK rats [2]; day 1, 0.00 min) was 103.67, the “glucose in glucose tolerance test” value (GK rats [2]; day 1, 5.00 min) was 257.17 and the “glucose in glucose tolerance test” value (GK rats [2]; day 1, 15.00 min) was 195.67. The “glucose in glucose tolerance test” value (GK rats [2]; day 1, 30.00 min) was 149.50, the “glucose in glucose tolerance test” value (GK rats [2]; day 1, 60.00 min) was 126.83 and the “glucose in glucose tolerance test” value (GK rats [2]; day 1, 90.00 min) was 158.00. The “glucose in glucose tolerance test” value (GK rats [2]; day 1, 120.00 min) was 173.50, the “glucose in glucose tolerance test” value (GK rats [2]; day 1, −20.00 min) was 107.17 and the “glucose in glucose tolerance test” value (GK rats [2]; day 3, 0.00 min) was 123.00. The “glucose in glucose tolerance test” value (GK rats [2]; day 3, 5.00 min) was 307.40, the “glucose in glucose tolerance test” value (GK rats [2]; day 3, 15.00 min) was 254.80 and the “glucose in glucose tolerance test” value (GK rats [2]; day 3, 30.00 min) was 182.20. For the same molecule, the “glucose in glucose tolerance test” value (GK rats [2]; day 3, 60.00 min) was 143.60, the “glucose in glucose tolerance test” value (GK rats [2]; day 3, 90.00 min) was 140.60 and the “glucose in glucose tolerance test” value (GK rats [2]; day 3, 120.00 min) was 137.60. For the same molecule, the “glucose in glucose tolerance test” value (GK rats [2]; day 3, −20.00 min) was 144.20, the “glucose in glucose tolerance test” value (GK rats [2]; day 9, 0.00 min) was 129.00 and the “glucose in glucose tolerance test” value (GK rats [2]; day 9, 5.00 min) was 278.80. For the same molecule, the “glucose in glucose tolerance test” value (GK rats [2]; day 9, 15.00 min) was 252.40, the “glucose in glucose tolerance test” value (GK rats [2]; day 9, 30.00 min) was 154.80 and the “glucose in glucose tolerance test” value (GK rats [2]; day 9, 60.00 min) was 116.20. The “glucose in glucose tolerance test” value (GK rats [2]; day 9, 90.00 min) was 115.00, the “glucose in glucose tolerance test” value (GK rats [2]; day 9, 120.00 min) was 88.60 and the “glucose in glucose tolerance test” value (GK rats [2]; day 9, −20.00 min) was 131.00. For the same molecule, the “glucose in glucose tolerance test” value (GK rats [2]; day 16, 0.00 min) was 174.20, the “glucose in glucose tolerance test” value (GK rats [2]; day 16, 5.00 min) was 275.20 and the “glucose in glucose tolerance test” value (GK rats [2]; day 16, 15.00 min) was 245.80. For the same molecule, the “glucose in glucose tolerance test” value (GK rats [2]; day 16, 30.00 min) was 238.80, the “glucose in glucose tolerance test” value (GK rats [2]; day 16, 60.00 min) was 215.40 and the “glucose in glucose tolerance test” value (GK rats [2]; day 16, 90.00 min) was 217.60. The “glucose in glucose tolerance test” value (GK rats [2]; day 16, 120.00 min) was 212.60, the “glucose in glucose tolerance test” value (GK rats [2]; day 16, −20.00 min) was 169.00 and the “development of hyperglycemia on day 16” value (GK rats [2]; chronic study, day 16, in words) was “hyperglycemia had developed in rats receiving vehicle, but not in the rats treated with Example 9”. For the same molecule, the “glucagon (pM)” value (GK rats [3]; day 3) was 21.31 pM, the “glucose” value (GK rats [3]; day 3) was 144.20 mg/dL and the “insulin (pM)” value (GK rats [3]; day 3) was 223.24 pM. For the same molecule, the insulin levels (GK rats [3]; day 3 and day 9, in words) was “normal insulin levels”, the “glucagon (pM)” value (GK rats [3]; day 9) was 21.67 pM and the “glucose” value (GK rats [3]; day 9) was 131.00 mg/dL. The “insulin (pM)” value (GK rats [3]; day 9) was 240.29 pM, the “glucagon (pM)” value (GK rats [3]; day 16) was 24.67 pM and the “glucose” value (GK rats [3]; day 16) was 169.00 mg/dL. The “insulin (pM)” value (GK rats [3]; day 16) was 108.09 pM, the glucagon levels (GK rats [3]; day 16, in words) was “no increase in glucagons” and the “glucagon (pM)” value (GK rats [3]; pre dose) was 31.28 pM. The “glucose” value (GK rats [3]; pre dose) was 107.17 mg/dL, the “insulin (pM)” value (GK rats [3]; pre dose) was 269.67 pM and the “development of hyperglycemia compared with vehicle” value (GK rats [3]; sixteen days, in words) was “no hyperglycemia had developed”. The Emax (AXOR109; 1 h, normalized to alpha-MSH system max) was 51 to 75% and the EC50 (AXOR109; AXOR109 transfected melanophores) was 126 to 1000 nM.
